Consider 20 compounds from patent US9109004B2, “Progesterone receptor antagonists” (Bayer Intellectual Property GmbH, priority 2010, dated 2015).

Each structure is given as a SMILES string.

The term IC50 denotes the concentration that gives 50% inhibition. Low values mean greater potency in that assay, high ones weaker potency in that assay.

For the assay, the target named is T1, human progesterone receptor A (Homo sapiens, UniProt P06401).
T1 construct: expressed in transfected cells; host or cells: SK-N-MC human neuroblastoma cells, stably transfected
T1 sequence (P06401 1-769 isoform P06401-2): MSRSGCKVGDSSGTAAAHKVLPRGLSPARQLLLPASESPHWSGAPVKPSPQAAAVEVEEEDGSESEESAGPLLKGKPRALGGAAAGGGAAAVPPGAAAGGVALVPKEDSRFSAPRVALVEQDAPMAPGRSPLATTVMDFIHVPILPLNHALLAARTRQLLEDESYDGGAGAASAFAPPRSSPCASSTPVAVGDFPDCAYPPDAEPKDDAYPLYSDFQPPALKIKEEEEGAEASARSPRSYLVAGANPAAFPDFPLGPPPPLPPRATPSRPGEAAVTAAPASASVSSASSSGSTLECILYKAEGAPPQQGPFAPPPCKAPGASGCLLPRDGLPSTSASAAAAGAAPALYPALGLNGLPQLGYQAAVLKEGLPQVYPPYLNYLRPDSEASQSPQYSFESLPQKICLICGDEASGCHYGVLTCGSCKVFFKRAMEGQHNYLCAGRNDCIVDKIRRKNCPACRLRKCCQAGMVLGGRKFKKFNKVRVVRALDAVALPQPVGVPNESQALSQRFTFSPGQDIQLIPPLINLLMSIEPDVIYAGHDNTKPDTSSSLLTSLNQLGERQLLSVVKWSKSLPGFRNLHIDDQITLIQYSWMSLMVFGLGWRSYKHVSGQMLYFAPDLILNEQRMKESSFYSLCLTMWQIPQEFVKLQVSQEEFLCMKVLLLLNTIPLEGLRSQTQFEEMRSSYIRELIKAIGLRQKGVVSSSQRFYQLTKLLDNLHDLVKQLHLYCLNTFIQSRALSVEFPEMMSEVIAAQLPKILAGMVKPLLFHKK
The assay is described as follows: Progesterone-receptor-antagonistic action in stably transfected SK-N-MC cells, MTV-LUC reporter (PR-A). To be noted: antagonistic potency vs 0.1 nmol/l promegestone, 24 hours, luciferase. It is filed as cell-based. On the procedure: Progesterone-Receptor-Antagonistic Action in Stable Transfectants of Human Neuroblastoma Cells (SK-N-MC Cells) with the Human Progesterone A or Progesterone B Receptor and an MTV-LUC Reporter Construct
SK-N-MC cells (human neuroblastoma cells) that have been stably transfected with plasmids that express the human progesterone receptor B (pRChPR-B-neo) or the human progesterone receptor A (pRChPR-A-neo) and a reporter construct (pMMTV-LUC), were incubated for 24 hours either in the absence (negative control) or in the presence of increasing amounts of the particular test compound (0.01 nmol/l, 0.1 nmol/l, 1 nmol/l, 10 nmol/l, 100 nmol/l and 1 μmol/l), to determine the agonistic efficacy. As positive control of reporter gene induction, the cells were treated with the synthetic gestagen promegestone (0.01 nmol/l, 0.1 nmol/l, 1 nmol/l, 10 nmol/l, 100 nmol/l and 1 μmol/l). For determination of the antagonistic activity, the cells were treated with 0.1 nmol/l promegestone and additionally with increasing amounts of the particular test compound (0.01 nmol/l, 0.1 nmol/l, 1 nmol/l, 10 nmol/l, 100 nmol/l and 1 μmol/l). The activity of the reporter gene LUC (LUC=luciferase) was determined in the cell lysates and was measured as RLU (relative light units). All measured values are given as % efficacy and as EC50 or IC50 concentrations.
In turn, `C[C@]12C[C@H](c3ccc(C(=O)Nc4ccccn4)cc3)C3=C4CCC(=O)C=C4CC[C@H]3[C@@H]1CC[C@@]2(O)C(F)(F)C(F)(F)F` [Example 11, 4-[(11β,17β)-17-hydroxy-3-oxo-17-(pentafluoroethyl)estra-4,9-dien-11-yl]-N-(pyridin-2-yl)benzamide] showed an IC50 of 10 nM.

For the compound `CC(C)(NC(=O)c1ccc([C@H]2C[C@@]3(C)[C@@H](CC[C@@]3(O)C(F)(F)C(F)(F)F)[C@@H]3CCC4=CC(=O)CCC4=C32)cc1)c1ccccc1` [Example 17, 4-[(11β,17β)-17-hydroxy-3-oxo-17-(pentafluoroethyl)estra-4,9-dien-11-yl]-N-(2-phenylpropan-2-yl)benzamide], the half-inhibitory concentration (IC50) came to 0.21 nM.

For `C[C@]12C[C@H](c3ccc(C(=O)Nc4ccc(C(=O)Nc5ccccc5)cc4)cc3)C3=C4CCC(=O)C=C4CC[C@H]3[C@@H]1CC[C@@]2(O)C(F)(F)C(F)(F)F` [Example 60, 4-[(11β,17β)-17-hydroxy-3-oxo-17-(pentafluoroethyl)estra-4,9-dien-11-yl]-N-[4-(phenylcarbamoyl)phenyl]benzamide], inhibition was half-maximal at 0.39 nM (IC50).

For the compound `C[C@]12C[C@H](c3ccc(C(=O)NCC4CC4)cc3)C3=C4CCC(=O)C=C4CC[C@H]3[C@@H]1CC[C@@]2(O)C(F)(F)C(F)(F)F` [Example 59, N-(cyclopropylmethyl)-4-[(11β,17β)-17-hydroxy-3-oxo-17-(pentafluoroethyl)estra-4,9-dien-11-yl]benzamide], the concentration for half-maximal inhibition (IC50) amounted to 6.9 nM.

For the compound `CN(Cc1ccncc1)C(=O)c1ccc([C@H]2C[C@@]3(C)[C@@H](CC[C@@]3(O)C(F)(F)C(F)(F)F)[C@@H]3CCC4=CC(=O)CCC4=C32)cc1` [Example 33, 4-[(11β,17β)-17-hydroxy-3-oxo-17-(pentafluoroethyl)estra-4,9-dien-11-yl]-N-methyl-N-(pyridin-4-ylmethyl)benzamide], the IC50 was found to be 6.98 nM.

Compound `CN(Cc1ccccc1)C(=O)c1ccc([C@H]2C[C@@]3(C)[C@@H](CC[C@@]3(O)C(F)(F)C(F)(F)F)[C@@H]3CCC4=CC(=O)CCC4=C32)cc1` [Example 51, N-benzyl-4-[(11β,17β)-17-hydroxy-3-oxo-17-(pentafluoroethyl)estra-4,9-dien-11-yl]-N-methylbenzamide] showed a 50% inhibitory concentration (IC50) of 9 nM.

Compound `C[C@]12C[C@H](c3ccc(C(=O)Nc4ccc(C(=O)O)cc4)cc3)C3=C4CCC(=O)C=C4CC[C@H]3[C@@H]1CC[C@@]2(O)C(F)(F)C(F)(F)F` [Example 78, 4-({4-[(11β,17β)-17-Hydroxy-3-oxo-17-(pentafluoroethyl)estra-4,9-dien-11-yl]benzoyl}amino)benzoic acid] had an IC50 of 9.6 nM.

`C[C@]12C[C@H](c3ccc(C(=O)N4CCN(c5cnccn5)CC4)cc3)C3=C4CCC(=O)C=C4CC[C@H]3[C@@H]1CC[C@@]2(O)C(F)(F)C(F)(F)F` [Example 46, (11β,17β)-17-hydroxy-17-(pentafluoroethyl)-11-(4-{[4-(pyrazin-2-yl)piperazin-1-yl]carbonyl}phenyl)estra-4,9-dien-3-one]: it took 4.3 nM to reach half-maximal inhibition (IC50).

`CN(Cc1ccccn1)C(=O)c1ccc([C@H]2C[C@@]3(C)[C@@H](CC[C@@]3(O)C(F)(F)C(F)(F)F)[C@@H]3CCC4=CC(=O)CCC4=C32)cc1` [Example 31, 4-[(11β,17β)-17-hydroxy-3-oxo-17-(pentafluoroethyl)estra-4,9-dien-11-yl]-N-methyl-N-(pyridin-2-ylmethyl)benzamide] displayed a 50% inhibitory concentration (IC50) of 10.8 nM.

With `CN(CCc1ccncc1)C(=O)c1ccc([C@H]2C[C@@]3(C)[C@@H](CC[C@@]3(O)C(F)(F)C(F)(F)F)[C@@H]3CCC4=CC(=O)CCC4=C32)cc1` [Example 58, 4-[(11β,17β)-17-hydroxy-3-oxo-17-(pentafluoroethyl)estra-4,9-dien-11-yl]-N-methyl-N-[2-(pyridin-4-yl)ethyl]benzamide], the IC50 was 5.7 nM.

Compound `C[C@]12C[C@H](c3ccc(C(=O)NCCc4cccnc4)cc3)C3=C4CCC(=O)C=C4CC[C@H]3[C@@H]1CC[C@@]2(O)C(F)(F)C(F)(F)F` [Example 55, 4-[(11β,17β)-17-hydroxy-3-oxo-17-(pentafluoroethyl)estra-4,9-dien-11-yl]-N-[2-(pyridin-3-yl)ethyl]benzamide] registered a half-inhibitory concentration (IC50) of 2.5 nM.

`C[C@]12C[C@H](c3ccc(C(=O)Nc4cccc(C(=O)O)c4)cc3)C3=C4CCC(=O)C=C4CC[C@H]3[C@@H]1CC[C@@]2(O)C(F)(F)C(F)(F)F` [Example 77, 3-({4-[(11β,17β)-17-Hydroxy-3-oxo-17-(pentafluoroethyl)estra-4,9-dien-11-yl]benzoyl}amino)benzoic acid] showed an IC50 of 140 nM.

The compound `C[C@]12C[C@H](c3ccc(C(=O)N4CCc5ccccc5C4)cc3)C3=C4CCC(=O)C=C4CC[C@H]3[C@@H]1CC[C@@]2(O)C(F)(F)C(F)(F)F` [Example 39, (11β,17β)-11-[4-(3,4-dihydroisoquinolin-2(1H)-ylcarbonyl)phenyl]-17-hydroxy-17-(pentafluoroethyl)estra-4,9-dien-3-one] showed an IC50 of 9.5 nM.

Take `C[C@]12C[C@H](c3ccc(C(=O)N4CCCC4)cc3)C3=C4CCC(=O)C=C4CC[C@H]3[C@@H]1CC[C@@]2(O)C(F)(F)C(F)(F)F` [Example 15, (11β,17β)-17-hydroxy-17-(pentafluoroethyl)-11-[4-(pyrrolidin-1-ylcarbonyl)phenyl]estra-4,9-dien-3-one]: the half-inhibitory concentration (IC50) was found to be 38 nM.

Compound `CNC(=O)CN1CCN(C(=O)c2ccc([C@H]3C[C@@]4(C)[C@@H](CC[C@@]4(O)C(F)(F)C(F)(F)F)[C@@H]4CCC5=CC(=O)CCC5=C43)cc2)CC1` [Example 71, 2-(4-{4-[(11β,17β)-17-hydroxy-3-oxo-17-(pentafluoroethyl)estra-4,9-dien-11-yl]benzoyl}piperazin-1-yl)-N-methylacetamide] returned an IC50 of 38 nM.

Take `C[C@]12C[C@H](c3ccc(C(=O)N4CCN(Cc5ccccc5)CC4)cc3)C3=C4CCC(=O)C=C4CC[C@H]3[C@@H]1CC[C@@]2(O)C(F)(F)C(F)(F)F` [Example 40, (11β,17β)-11-{4-[(4-benzylpiperazin-1-yl)carbonyl]phenyl}-17-hydroxy-17-(pentafluoroethyl)estra-4,9-dien-3-one]: the IC50 was 117 nM.

`C[C@]12C[C@H](c3ccc(C(=O)N4CCN(S(C)(=O)=O)CC4)cc3)C3=C4CCC(=O)C=C4CC[C@H]3[C@@H]1CC[C@@]2(O)C(F)(F)C(F)(F)F` [Example 67, (11β,17β)-17-hydroxy-11-(4-{[4-(methylsulphonyl)piperazin-1-yl]carbonyl}phenyl)-17-(pentafluoroethyl)estra-4,9-dien-3-one] returned an IC50 of 6.3 nM.

The compound `COc1ccccc1NC(=O)c1ccc([C@H]2C[C@@]3(C)[C@@H](CC[C@@]3(O)C(F)(F)C(F)(F)F)[C@@H]3CCC4=CC(=O)CCC4=C32)cc1` [Example 23, 4-[(11β,17β)-17-hydroxy-3-oxo-17-(pentafluoroethyl)estra-4,9-dien-11-yl]-N-(2-methoxyphenyl)benzamide] displayed an IC50 of 86 nM.

Compound `C[C@]12C[C@H](c3ccc(C(=O)N4CCN(c5ccncc5)CC4)cc3)C3=C4CCC(=O)C=C4CC[C@H]3[C@@H]1CC[C@@]2(O)C(F)(F)C(F)(F)F` [Example 45, (11β,17β)-17-hydroxy-17-(pentafluoroethyl)-11-(4-{[4-(pyridin-4-yl)piperazin-1-yl]carbonyl}phenyl)estra-4,9-dien-3-one] showed an IC50 of 26 nM.

For the compound `C[C@]12C[C@H](c3ccc(C(=O)N4CCN(Cc5ccncc5)CC4)cc3)C3=C4CCC(=O)C=C4CC[C@H]3[C@@H]1CC[C@@]2(O)C(F)(F)C(F)(F)F` [Example 49, (11β,17β)-17-hydroxy-17-(pentafluoroethyl)-11-(4-{[4-(pyridin-4-ylmethyl)piperazin-1-yl]carbonyl}phenyl)estra-4,9-dien-3-one], the IC50 came out at 7.6 nM.
